Assay results published in patent US20110092465A1, “MONOMERIC PYROPHOSPHATE COMPLEXES AND METHODS OF TREATMENT USING THE COMPLEXES” (SYRACUSE UNIVERSITY, priority 2009, published 2011).
Like-named read-outs stand apart in the source and are kept apart here. Blank lines part the entries; values can stand above or below the compound they belong to.

Tests used:
[1] = tested on: A2780/AD cell line; type: cell-based, human
Method: Cisplatin was used as a control and for comparative purposes. The IC50 values (μM) are for compounds 1-4 in A2780/AD cell line. Cisplatin controls and dimeric complexes previously reported are also shown for comparison:
Experimental details for the in-vitro cell testing of compounds [Co(phen)2(H2P2O7)].4H2O (1.4H2O), [Ni(phen)2(H2P2O7)].8H2O (2.8H2O) and [Cu(phen)(H2O)(H2P2O7)]. For in vitro cell studies, all experiments were performed in a Labconco Purifier I laminar flow hood that had been disinfected with 70% ethanol and irradiated with UV light. The A2780/AD cell line that was used for testing was provided by the Fox Chase Cancer Center, Philadelphia (USA). Fetal bovine serum (FBS) was purchased from Hyclone. Penicillin-streptomycin solution with 10,000 units penicillin and 10 mg/mL streptomycin in 0.9% NaCl was obtained from Sigma. Gibco RPMI 1640 growth media that contained L-glutamine and phenol red was supplied by Invitrogen. Cellgro Cellstripper, a non-enzymatic cell dissociation solution, was obtained from Mediatech. Growth media were filtered with 0.22 μm filter (VWR). Cell Counting Kit 8 (CCK8) was purchased from Dojindo. Cells were incubated and grown in an incubator that was purchased from VWR. Optical densities of the cell cultures were measured at 450 nm with Thermo Multiskan EX that was equipped with Ascent software version 2.6.
Cell lines and culture conditions. The A2780/AD cell line was cultured in BD Falcon 25 cm^2 surface area, canted neck flaks with vented cap (VWR) containing RPMI media supplemented with 10% FBS and 10% Penicillin-Streptomycin solution by volume. Subcultures were generated by incubating the cells with Cellstripper, and passing cells at a 1:10 culture ratio.
Drug cytotoxicity. Cells used for studies were diluted to make either a solution of 50,000 cells/mL, used for the 72 h studies, or 80,000 cells/mL, used for the 6 and 24 h studies. 100 μL of the cell solution was added to the wells of a 96 well plate, and the cells were allowed to adhere overnight. The media was then removed from the 96 well plates and replaced with either 100 μL (for 6 h studies) or 200 μL (for 24 and 72 h studies) of media containing drug. Drug solutions were prepared by dissolving the drug in media (compounds 2, 4) or in a 25% methanol solution (compounds 1, 3). The solutions were filter sterilized and serially diluted 1:10. The concentration of methanol was kept below 5% for all concentrations studied. Cisplatin was prepared by dissolving in PBS and sonicating for 1 h to create a final concentration of 0.5 mg/mL (1.66 mM). Each drug was tested over 9 concentrations in triplicate with each point in done in triplicate. After the incubation period, the drug containing media was removed and replaced with 100 μL of media containing 10% CCK-8 solution by volume. The plates were incubated until the control reached 0.8-1.2 absorbance at 450 nm (2, 1.5 and 0.5 h for the 6, 24, 72 h runs respectively). The absorbance was measured at 450 nm via a plate reader. A blank was subtracted from all wells, and the results were plotted as a percentage compared to the control vs. concentration of drug. IC50 values were calculated by fitting the data using Prism Graphpad 5 using a nonlinear, dose response curve with a 4 variable fit. The reported ICso values are an average of at least 3 runs reported with standard deviation.

[2] = tested on: adriamycin-resistant human ovarian cancer cell line (A2780/AD); experiment: Proliferation colorimetric assay (WSK-8) of compounds 11-13 in A2780/AD; type: cell-based; details: for toxicity in words: 24 and 72 h
Method: Compounds 11, 12, and 13 were tested against the adriamycin-resistant human ovarian cancer cell line (A2780/AD) over a time period of 24 and 72 h (Table 8 below). Cisplatin was used as an external control. Adriamycin resistant ovarian cancer cell line (A2780/AD) were cultured as adherent monolayers in RPMI 1640 (Invitrogen) growth media containing L-glutamine and folic acid supplemented with 10,000 units penicillin, 10 mg/ml streptomycin (Sigma) and 10% (v/v) fetal bovine serum (Sigma). Cells were incubated and grown in a VWR mammalian incubator at 5% CO2 and 95% humidity. All preparations for cell culture and assays were conducted in a sterile environment under a Labconco Purifier I Laminar flow hood. Cells were cultured in Millipore 250 mL culture bottles with vented lids.
The proliferation of the exponential phase cultures of A2780/AD were assessed by colorimetric assay. WSK-8 (Dojindo) was performed according to manufacturer's instruction. Adherent cell cultures were harvested by stripping of culture flask by a non-enzymatic cell stripper (Mediatech) after a 30 minute incubation period. The cells were then collected. The cell density was adjusted with the addition of RPMI 1640 media to 80,000 cells/mL for exponential growth for the period of drug exposure. To each well, aliquots of 100 μL were inoculated resulting in 8,000 cells per well. After a 24 h incubation time to facilitate adherence, the media was removed and replaced with 200 μl of fresh media containing different concentrations of compounds 11, 12, and 13. The cells were then incubated for 24 and 72 h. Optical densities were measured at 450 nm using a plate reader. The percentage of cell viability was determined relative to untreated control microcultures. The IC50 concentrations were calculated based on a sigmoidal (doseresponse) fit using OriginLabs 8 software with R^2 values ≧0.70 in all cases (average R^2 value 0.90). All experimental points were measured in triplicate and each experiment was performed at least three times on separate “batches” of synthesized compound. A2780/AD2O cells used were fewer than 12 passages for all testing.

[3] = tested on: adriamycin-resistant human ovarian cancer cell line (A2780/AD); details: dimeric complexes previously reported (Ref 3), cited from earlier work
[4] = A2780/AD, 6 h exposure, read-out: IC50 6 h
[5] = A2780/AD, 24 h exposure, read-out: IC50 24 h
[6] = A2780/AD, 72 h exposure, read-out: IC50 72 h
[7] = 24 h exposure, read-out: IC50 24 h
[8] = 72 h exposure, read-out: IC50 72 h

Compound: O.O.O.O.O.O.O.O.O.O.O.O.O.O.O.O=P([O-])([O-])OP(=O)([O-])[O-].[Cu+2].[Na+].[Na+].c1cnc2c(c1)ccc1cccnc12 [compound 4, {[Cu(phen)(H2O)(P2O7)] [Na2(H2O)8]}.6H2O]
IC50 [1]: 0.03 to 0.08 µM
cytotoxic activity in words [1]: low nanomolar range
IC50 [1, 4]: 15 ± 6 µM
IC50 [1, 5]: 0.6 ± 0.6 µM
IC50 [1, 6]: 0.08 ± 0.03 µM

Compound: O=P([O-])(O)OP(=O)([O-])O.[Ni+2].c1cnc2c(c1)ccc1cccnc12.c1cnc2c(c1)ccc1cccnc12 [compound 2, [Ni(phen)2(H2P2O7)].8H2O]
cytotoxic activity in words [1]: little activity
IC50 [1, 4]: > 1000 µM
IC50 [1, 5]: > 1000 µM
IC50 [1, 6]: 630 ± 390 µM
toxicity in words [2]: low nanomolar inhibitory concentrations

Compound: O=P([O-])([O-])OP(=O)([O-])[O-].[Ni+2].[Ni+2].c1cnc2c(c1)ccc1cccnc12.c1cnc2c(c1)ccc1cccnc12.c1cnc2c(c1)ccc1cccnc12.c1cnc2c(c1)ccc1cccnc12 [compound 11, {[Ni(phen)2]2(μ-P2O7)}.27H2O]
toxicity in words [2]: low toxicity
IC50 [2, 7]: 589 ± 31.6 µM
IC50 [2, 8]: 304 ± 40.9 µM
IC50 ([3]; 24 h, read-out: IC50 24 h): 590 µM
IC50 ([3]; 72 h, read-out: IC50 72 h): 304 µM

IC50 [1, 4]: > 160 µM
IC50 [1, 5]: 200 ± 16 µM
IC50 [1, 6]: 13 ± 5 µM
IC50 [2, 7]: 84 ± 10.3 µM
IC50 [2, 8]: 11 ± 1.5 µM
Compound: cis-[Pt(NH3)2Cl2] [Cisplatin, reference compound]

Compound: O.O=P([O-])(O)OP(=O)([O-])O.[Cu+2].c1cnc2c(c1)ccc1cccnc12 [compound 3, [Cu(phen)(H2O)(H2P2O7)]]
cytotoxic activity in words [1]: low nanomolar range
IC50 [1, 4]: 14 ± 6 µM
IC50 [1, 5]: 0.7 µM
IC50 [1, 6]: 0.14 ± 0.05 µM
IC50 ([2]; 72 h, read-out: IC50 at 72 h): ~0.000162 µM

Compound: O=P([O-])([O-])OP(=O)([O-])[O-].[Co+2].[Co+2].c1cnc2c(c1)ccc1cccnc12.c1cnc2c(c1)ccc1cccnc12.c1cnc2c(c1)ccc1cccnc12.c1cnc2c(c1)ccc1cccnc12 [compound 13, {[Co(phen)2]2(μ-25 P2O7)}.6MeOH]
toxicity in words [2]: significant toxicity
IC50 [2, 7]: 2.01 ± 0.86 µM
IC50 ([2]; 72 h, read-out: IC50 at 72 h): 0.00016 µM
IC50 ([3]; 24 h, read-out: IC50 24 h): 2 µM
IC50 ([3]; 72 h, read-out: IC50 72 h): 0.00017 µM

Compound: O.O.O.O.O.O.O.O.O.O.O=P([O-])([O-])OP(=O)([O-])[O-].[Cu+2].[Cu+2].c1cnc2c(c1)ccc1cccnc12.c1cnc2c(c1)ccc1cccnc12 [compound 12, {[Cu(phen)(H2O)]2(μ-P2O7)}.8H2O]
toxicity in words [2]: significant toxicity
IC50 [2, 7]: 0.64 ± 0.12 µM
IC50 ([3]; 24 h, read-out: IC50 24 h): 0.6 µM
IC50 ([3]; 72 h, read-out: IC50 72 h): 0.0018 µM

Compound: O=P([O-])(O)OP(=O)([O-])O.[Co+2].c1cnc2c(c1)ccc1cccnc12.c1cnc2c(c1)ccc1cccnc12 [compound 1, [Co(phen)2(H2P2O7)].4H2O]
IC50 [1]: 0.03 to 0.08 µM
cytotoxic activity in words [1]: low nanomolar range
IC50 [1, 4]: > 1000 µM
IC50 [1, 5]: 5 µM
IC50 [1, 6]: 0.03 ± 0.02 µM
